Data: US20250282768A1 (Janssen Pharmaceutica NV, priority 2022, published 2025)

Tested on: p-IKKa levels in L363 (NIK translocated multiple myeloma) cells
Assay: Assay 2: Effect of compounds on p-IKKa levels in L363 (NIK translocated multiple myeloma) cells
Format: cell-based
Settings: Homo sapiens, L-363, 6 h, read-out: Assay 2 IC50 (nM), p-IKKa (Ser 176/180) in BAFF stimulated L363 cells with MG132, 6 h; average if tested more than once
Outline: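 Read-out is p-IKKa Ser176/180 by AlphaLISA SureFire in lysates. Cells were BAFF-primed (250 ng/ml) overnight or left unstimulated, then exposed 6 h at 37 °C to compound with MG132 (10 μM), 0.3% DMSO. IC50 from sigmoidal curve fit, normalized between stimulated and unstimulated controls.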

Structure (SMILES)	IC50
Cc1nn(C)c(C)c1Nc1nccc(-c2cccc(-c3cc([C@]4(O)CCN(C)C4=O)on3)n2)n1 [Example 289, (R)-3-Hydroxy-1-methyl-3-(3-(6-(2-((1,3,5-trimethyl-1H-pyrazol-4-yl)amino)pyrimidin-4-yl)pyridin-2-yl)isoxazol-5-yl)pyrrolidin-2-one]	> 500 nM
CN1CC[C@@](O)(c2cc(-c3cccc(-c4ccnc(Nc5ccncc5C#N)n4)n3)no2)C1=O [Example 290, (R)-4-((4-(6-(5-(3-Hydroxy-1-methyl-2-oxopyrrolidin-3-yl)isoxazol-3-yl)pyridin-2-yl)pyrimidin-2-yl)amino)nicotinonitrile]	50 to 500 nM
Cc1ncc(Nc2nccc(-c3cccc(-c4cc([C@]5(O)CCN(C)C5=O)on4)n3)n2)cn1 [Example 291, (R)-3-Hydroxy-1-methyl-3-(3-(6-(2-((2-methylpyrimidin-5-yl)amino)pyrimidin-4-yl)pyridin-2-yl)isoxazol-5-yl)pyrrolidin-2-one]	50 to 500 nM
CN1CC[C@@](O)(c2cc(-c3cccc(-c4ccnc(Nc5cncc(C#N)c5)n4)n3)no2)C1=O [Example 292, (R)-5-((4-(6-(5-(3-Hydroxy-1-methyl-2-oxopyrrolidin-3-yl)isoxazol-3-yl)pyridin-2-yl)pyrimidin-2-yl)amino)nicotinonitrile]	< 50 nM
Cc1cc(Nc2nccc(-c3cccc(-c4cc([C@]5(O)CCN(C)C5=O)on4)n3)n2)c(F)cn1 [Example 293, (R)-3-(3-(6-(2-((5-Fluoro-2-methylpyridin-4-yl)amino)pyrimidin-4-yl)pyridin-2-yl)isoxazol-5-yl)-3-hydroxy-1-methylpyrrolidin-2-one]	< 50 nM
CN1CC[C@@](O)(c2cc(-c3cccc(-c4ccnc(Nc5ccnc(C(F)F)c5)n4)n3)no2)C1=O [Example 294, (R)-3-(3-(6-(2-((2-(Difluoromethyl)pyridin-4-yl)amino)pyrimidin-4-yl)pyridin-2-yl)isoxazol-5-yl)-3-hydroxy-1-methylpyrrolidin-2-one]	< 50 nM
CN1CC[C@@](O)(c2cc(-c3cccc(-c4ccnc(Nc5cc(F)n(C)n5)n4)n3)no2)C1=O [Example 295, (R)-3-(3-(6-(2-((5-Fluoro-1-methyl-1H-pyrazol-3-yl)amino)pyrimidin-4-yl)pyridin-2-yl)isoxazol-5-yl)-3-hydroxy-1-methylpyrrolidin-2-one]	< 50 nM
CN1CC[C@@](O)(c2cc(-c3cccc(-c4ccnc(Nc5cn(C)nc5Cl)n4)n3)no2)C1=O [Example 296, (R)-3-(3-(6-(2-((3-Chloro-1-methyl-1H-pyrazol-4-yl)amino)pyrimidin-4-yl)pyridin-2-yl)isoxazol-5-yl)-3-hydroxy-1-methylpyrrolidin-2-one]	< 50 nM
CN1CC[C@@](O)(c2cc(-c3cccc(-c4ccnc(Nc5cnn(C)c5Cl)n4)n3)no2)C1=O [Example 297, (R)-3-(3-(6-(2-((5-Chloro-1-methyl-1H-pyrazol-4-yl)amino)pyrimidin-4-yl)pyridin-2-yl)isoxazol-5-yl)-3-hydroxy-1-methylpyrrolidin-2-one]	< 50 nM
Cc1nccc(Nc2nccc(-c3cccc(-c4cc([C@]5(O)CCN(C)C5=O)on4)n3)n2)n1 [Example 298, (R)-3-Hydroxy-1-methyl-3-(3-(6-(2-((2-methylpyrimidin-4-yl)amino)pyrimidin-4-yl)pyridin-2-yl)isoxazol-5-yl)pyrrolidin-2-one]	< 50 nM
CN1CC[C@@](O)(c2cc(-c3cccc(-c4ccnc(Nc5cnn6ccncc56)n4)n3)no2)C1=O [Example 299, (R)-3-Hydroxy-1-methyl-3-(3-(6-(2-(pyrazolo[1,5-a]pyrazin-3-ylamino)pyrimidin-4-yl)pyridin-2-yl)isoxazol-5-yl)pyrrolidin-2-one]	< 50 nM
CN1CC[C@@](O)(c2cc(-c3cccc(-c4ccnc(Nc5cc6n(n5)CC5(CC5)C6)n4)n3)no2)C1=O [Example 300, (R)-3-(3-(6-(2-((4′H,6′H-Spiro[cyclopropane-1,5′-pyrrolo[1,2-b]pyrazol]-2′-yl)amino)pyrimidin-4-yl)pyridin-2-yl)isoxazol-5-yl)-3-hydroxy-1-methylpyrrolidin-2-one]	< 50 nM
[2H]c1cc(-c2cccc(-n3cc([C@]4(O)CCN(C)C4=O)nn3)n2)nc(Nc2ccn(CC)n2)n1 [Example 301, (R)-3-(1-(6-(2-((1-Ethyl-1H-pyrazol-3-yl)amino)pyrimidin-4-yl-6-d)pyridin-2-yl)-1H-1,2,3-triazol-4-yl)-3-hydroxy-1-methylpyrrolidin-2-one]	< 50 nM
CN1CC[C@@](O)(c2cc(-c3cccc(-c4ccnc(Nc5cnn6c5COCC6)n4)n3)no2)C1=O [Example 302, (R)-3-(3-(6-(2-((6,7-Dihydro-4H-pyrazolo[5,1-c][1,4]oxazin-3-yl)amino)pyrimidin-4-yl)pyridin-2-yl)isoxazol-5-yl)-3-hydroxy-1-methylpyrrolidin-2-one]	< 50 nM
CN1CC[C@@](O)(c2cc(-c3cccc(-c4ccnc(Nc5cnc(CO)cn5)n4)n3)no2)C1=O [Example 303, (R)-3-Hydroxy-3-(3-(6-(2-((5-(hydroxymethyl)pyrazin-2-yl)amino)pyrimidin-4-yl)pyridin-2-yl)isoxazol-5-yl)-1-methylpyrrolidin-2-one]	50 to 500 nM
CN1CC[C@@](O)(c2cc(-c3cccc(-c4ccnc(Nc5nnc(C6CC6)o5)n4)n3)no2)C1=O [Example 304, (R)-3-(3-(6-(2-((5-Cyclopropyl-1,3,4-oxadiazol-2-yl)amino)pyrimidin-4-yl)pyridin-2-yl)isoxazol-5-yl)-3-hydroxy-1-methylpyrrolidin-2-one]	50 to 500 nM
CN1CC[C@@](O)(c2cc(-c3cccc(-c4ccnc(Nc5ncn(CC(F)(F)F)n5)n4)n3)no2)C1=O [Example 305, (R)-3-Hydroxy-1-methyl-3-(3-(6-(2-((1-(2,2,2-trifluoroethyl)-1H-1,2,4-triazol-3-yl)amino)pyrimidin-4-yl)pyridin-2-yl)isoxazol-5-yl)pyrrolidin-2-one]	50 to 500 nM
CN(C)CCn1nccc1Nc1nccc(-c2cccc(-c3cc([C@]4(O)CCN(C)C4=O)on3)n2)n1 [Example 306, (R)-3-(3-(6-(2-((1-(2-(Dimethylamino)ethyl)-1H-pyrazol-5-yl)amino)pyrimidin-4-yl)pyridin-2-yl)isoxazol-5-yl)-3-hydroxy-1-methylpyrrolidin-2-one]	> 500 nM
CN1CC[C@@](O)(c2cc(-c3cccc(-c4ccnc(Nc5ccc(-c6nncn6C)cn5)n4)n3)no2)C1=O [Example 308, (R)-3-Hydroxy-1-methyl-3-(3-(6-(2-((5-(4-methyl-4H-1,2,4-triazol-3-yl)pyridin-2-yl)amino)pyrimidin-4-yl)pyridin-2-yl)isoxazol-5-yl)pyrrolidin-2-one]	50 to 500 nM
Cc1nc(-c2ccc(Nc3nccc(-c4cccc(-c5cc([C@]6(O)CCN(C)C6=O)on5)n4)n3)nc2)n(C)n1 [Example 309, (R)-3-(3-(6-(2-((5-(1,3-Dimethyl-1H-1,2,4-triazol-5-yl)pyridin-2-yl)amino)pyrimidin-4-yl)pyridin-2-yl)isoxazol-5-yl)-3-hydroxy-1-methylpyrrolidin-2-one]	> 500 nM
CN1CC[C@@](O)(c2cc(-c3cccc(-c4ccnc(Nc5ncnc6c5COCC6)n4)n3)no2)C1=O [Example 310, (R)-3-(3-(6-(2-((7,8-Dihydro-5H-pyrano[4,3-d]pyrimidin-4-yl)amino)pyrimidin-4-yl)pyridin-2-yl)isoxazol-5-yl)-3-hydroxy-1-methylpyrrolidin-2-one]	> 500 nM
COCn1ncc(Nc2nccc(-c3cccc(-c4cc([C@]5(O)CCN(C)C5=O)on4)n3)n2)n1 [Example 311, (R)-3-Hydroxy-3-(3-(6-(2-((2-(methoxymethyl)-2H-1,2,3-triazol-4-yl)amino)pyrimidin-4-yl)pyridin-2-yl)isoxazol-5-yl)-1-methylpyrrolidin-2-one]	< 50 nM
CN1CC[C@@](O)(c2cc(-c3cccc(-c4ccnc(Nc5ccn(C6COC6)n5)n4)n3)no2)C1=O [Example 312, (R)-3-Hydroxy-1-methyl-3-(3-(6-(2-((1-(oxetan-3-yl)-1H-pyrazol-3-yl)amino)pyrimidin-4-yl)pyridin-2-yl)isoxazol-5-yl)pyrrolidin-2-one]	< 50 nM
CN1CC[C@@](O)(c2cc(-c3cccc(-c4ccnc(Nc5cnc6n5CCOC6)n4)n3)no2)C1=O [Example 313, (R)-3-(3-(6-(2-((5,6-Dihydro-8H-imidazo[2,1-c][1,4]oxazin-3-yl)amino)pyrimidin-4-yl)pyridin-2-yl)isoxazol-5-yl)-3-hydroxy-1-methylpyrrolidin-2-one]	> 500 nM
CN1CC[C@@](O)(c2cc(-c3cccc(-c4ccnc(Nc5cnc6n5CCOCC6)n4)n3)no2)C1=O [Example 314, (R)-3-Hydroxy-1-methyl-3-(3-(6-(2-((5,6,8,9-tetrahydroimidazo[1,2-d][1,4]oxazepin-3-yl)amino)pyrimidin-4-yl)pyridin-2-yl)isoxazol-5-yl)pyrrolidin-2-one]	> 500 nM
CN1CC[C@@](O)(c2cc(-c3cccc(-c4ccnc(Nc5ncn6ccnc6n5)n4)n3)no2)C1=O [Example 315, (R)-3-Hydroxy-3-(3-(6-(2-(imidazo[1,2-a][1,3,5]triazin-2-ylamino)pyrimidin-4-yl)pyridin-2-yl)isoxazol-5-yl)-1-methylpyrrolidin-2-one]	> 500 nM
CN1CC[C@@](O)(c2cc(-c3cccc(-c4ccnc(Nc5ncc(CO)cn5)n4)n3)no2)C1=O [Example 316, (R)-3-Hydroxy-3-(3-(6-(2-((5-(hydroxymethyl)pyrimidin-2-yl)amino)pyrimidin-4-yl)pyridin-2-yl)isoxazol-5-yl)-1-methylpyrrolidin-2-one]	> 500 nM
COc1cccnc1Nc1nccc(-c2cccc(-c3cc([C@]4(O)CCN(C)C4=O)on3)n2)n1 [Example 317, (R)-3-Hydroxy-3-(3-(6-(2-((3-methoxypyridin-2-yl)amino)pyrimidin-4-yl)pyridin-2-yl)isoxazol-5-yl)-1-methylpyrrolidin-2-one]	> 500 nM
